According to patent publication US9737523B2, “Anti-fibrogenic compounds, methods and uses thereof” (priority 2013, dated 2017):

Legend:
MMP-3 = MMP-3 expression in human dermal fibroblasts, Western blot; format: cell-based; settings: various concentrations, 48 hours, dose-dependent
Description: Cells were then harvested by trypsinization and western blot analysis was performed.
Cell debris was removed by centrifugation at 20,000×g for 10 minutes. The protein concentration in supernatant was determined using the MicroBCA™ method (Pierce™, Rockford, Ill.). Proteins in supernatant were mixed with protein sample loading buffer (final concentration: 60 mM Tris-HCl (pH 6.80), 2% SDS, 10% glycerol, 1.5% β-mercaptoethanol, 0.002% bromophenol blue) and size fractioned by 10% of SDS-polyacrylamide gel. After proteins were transferred onto nitrocellulose membrane by iBlot™ (Invitrogen Life Technologies™), non-specific binding were blocked with phosphate buffer saline twenty 20 (PBS-T) containing 5% skim milk for 1 hour. The membrane was then incubated with primary antibody overnight. After incubation with a secondary antibody for 1 hour, protein bands were visualized by an enhanced chemiluminescence (ECL™) detection system (Santa Cruz Biotechnology™, Santa Cruz, Calif.). […] The secondary antibodies were either goat anti-mouse IgG (H+L) HPR conjugate or goat anti-rabbit IgG (H+L) HPR conjugate (Bio-rad Laboratory™ (Mississauga, ON, Canada). Secondary antibodies were used at a concentration of 1:3000.

ERK1/2 = ERK1/2 phosphorylation in dermal fibroblasts, Western blot; format: cell-based, human; settings: 100 μg/ml
Description: Cells were harvested by Trypsin/EDTA and lysed with cell lysis buffer containing 50 mM Tris-HCl (pH7.40), 150 mM NaCl, 10 mM EDTA, 5 mM EGTA, 1% TritonX-100™, 0.5% Igepal CA-630, 0.025% NaN3 and protease inhibitor cocktail (Sigma™). Cell debris was removed by centrifugation at 20,000×g for 10 minutes. The protein concentration in supernatant was determined using the MicroBCA™ method (Pierce™, Rockford, Ill.). Proteins in supernatant were mixed with protein sample loading buffer (final concentration: 60 mM Tris-HCl (pH 6.80), 2% SDS, 10% glycerol, 1.5% β-mercaptoethanol, 0.002% bromophenol blue) and size fractioned by 10% of SDS-polyacrylamide gel. After proteins were transferred onto nitrocellulose membrane by iBlot™ (Invitrogen Life Technologies™), non-specific binding were blocked with phosphate buffer saline twenty 20 (PBS-T) containing 5% skim milk for 1 hour. The membrane was then incubated with primary antibody overnight. After incubation with a secondary antibody for 1 hour, protein bands were visualized by an enhanced chemiluminescence (ECL™) detection system (Santa Cruz Biotechnology™, Santa Cruz, Calif.). […]

rabbit ear wounds = test: Rabbit ear hypertrophic scar model, topical application; format: in vivo
Description: Female rabbits (New Zealand white) weighing 4.5-5 kg were used for this study. The protocol was reviewed and approved by the University of British Columbia animal care committees. The rabbit ear model of hypertrophic scar was created as described previously (Rahmani-Neishaboor, et al., 2010). Briefly, 2 rabbits were anesthetized by intramuscular injection of ketamine (22.5 mg/kg) and xylazine (2.5 mg/kg) followed by isoflurane gas through tracheal intubation. Four wounds were created down to bare cartilage on the ventral side of each ear using an 8-mm dermal biopsy punch to remove full-thickness sections of skin. Antibiotics were applied on wounds daily until kynurenine treatment was started.
Kynureine in CMC gel (Rahmani-Neishaboor et al., 2010) with a concentration of 500 μg/ml was applied topically to the wounds of the experimental group (0.1 ml per wound) daily for 3 weeks starting at 1 week post wounding. The wounds of the control group were received the treatment with an equal amount of cream alone daily.
Animals were sacrificed on weeks 3 after treatments. Scars (10 mm punch biopsies) were harvested. Each scar was sectioned in two along its longitudinal axis and half of which was processed for routine histological analysis and another half was kept at −80° C. for future use.
Scar elevation was quantified by measuring Scar Elevation Index (SEI) from the H & E stained tissue section. The SEI is a ratio of total height in the wound tissue to the normal tissue below the hypertrophic scar.
According to a method previously reported (Gawronskao-Kozak B. et al. 2006), half of 8 mm diameter skin punches were weighed and frozen in −80° C. Skins were homogenized in 2 ml of PBS and stored at 4° C. overnight. The next day, 1 ml of 6N HCl was added and the mixture was heated at 120° C. for 5 hours. 20 μl of cooled samples and 50 μl of chloramine T solution were added to the 96-well plate and incubated at room temperature for 20 minutes. 50 μl of Erlich solution was then added and the mixture was incubated at 65° C. for 15 minutes. Absorbance was read at 570 nm. Hydroxyproline concentration was calculated by a standard curve.
RNA was extracted by Trizol™ (Invitrogen Life Technologies™). Briefly, 1 ml of Trizol™ was added to the homogenized skin tissue. 250 μl of chloroform was added after the mixture was standed at room temperature for 5 minutes. Top aqueous phase was transferred into a new eppendorf tube after centrifugation for 10 minute at 20,000×g. Equal volume isopropanol was added to the aqueous phase and mixed gently. The pellet was washed with 1 ml of 75% ethanol after centrifugation for 20 minutes. RNA was dissolved in DEPC treated H2O and its concentration was measured by Nanodrop2000™. cDNA was synthesized by cDNA synthesis kit from Roche according to manufacture's introduction using 1 μg of total RNA in each sample. Quantitative real-time PCR for rabbit type-1 α1 collagen, MMP-1 and housekeeper gene β-actin were performed in ViiA7 (Invitrogen™). cDNA samples were added to a PCR reaction master mix containing STBR Green Master Mix™ (Rox) (Roche™, Indianapolis, Ind.). All reactions were performed in duplicate using the following cycle conditions: 1 cycle of 95° C. for 10 minutes, 40 cycles of 95° C. for 15 seconds and 60° C. for 1 minute. The expression level of type-1 α1 collagen and MMP-1 in each sample was normalised to β-actin. RT-PCR primers: rabbit type-1 α1 collagen: 5′-[…]-3′ (Forward), 5′-[…]-3′ (Reverse); MMP-1,5′-[…]-3′ (Forward), 5′-[…]-3′ (Reverse); β-actin, 5′-[…]-3′ (Forward), 5′-[…]-3′(Reverse).

[1] = 50 μg in 0.1 ml CMC gel daily for three weeks
[2] = topical, versus no treatment or gel alone

Nc1ccccc1C(=O)CC(N)C(=O)O (racemic) [kynurenine]
MMP-3 expression (MMP-3): significantly increased
time of peak ERK1/2 activation (ERK1/2): 8 h
ERK1/2 phosphorylation (ERK1/2; different times): phosphorylated
collagen content (Massons' trichrome staining) (rabbit ear wounds; [1]): significant reduction
hydroxyproline content (index for tissue collagen content) (rabbit ear wounds; [1]): significant lower
average scar elevation index (SEI) (rabbit ear wounds; 50 μg in 0.1 ml CMC gel daily for three weeks, n=8, vehicle 1.978±0.442, untreated 2.098±0.324): 1.172±0.156
scarring versus non-treated or vehicle-only wounds (rabbit ear wounds; 50 μg in 0.1 ml CMC gel daily, after three weeks): significantly less scarring
wound closure versus untreated or CMC gel treated controls (rabbit ear wounds; 50 μg in 0.1 ml CMC gel daily, three weeks from day 8 post-wounding, data not shown): no significant difference
expression of MMP-1 in rabbit ear skin (quantitative RT-PCR) (rabbit ear wounds; [2]): increased
expression of type-1 α1 collagen in rabbit ear skin (quantitative RT-PCR) (rabbit ear wounds; [2]): decreased
